These results are taken from patent publication US20150231190A1, “COMPOSITIONS COMPRISING SIRAITIA GROSVENORI EXTRACTS AND METHODS FOR THE TREATMENT OF INFECTION” (Cascade Estates Limited, priority 2007, published 2015).

One data set relates to HIV-1 strain IIIB. In words: HIV-1 p24 antigen capture ELISA antiviral assay in H9 cells. Format: cell-based. As to conditions: for % Positive Control (HIV-1 p24): 7 days. The source says:
(§1) H9 cells were used as host cells for the virus. H9 is a human T cell clone selected for high yield permissive growth of HIV-1, cloned from Hut 78, a human T cell lymphoma cell line with an inducer/helper phenotype derived from the peripheral blood of a patient with Sezary Syndrome.
The virus used was HIV-1, Strain IIIB, Catalog No 10-124-000, Lot No. 6M0008-DP.
A titration was run on the virus under the assay conditions without the experimental compounds to determine the viral inoculum for the antiviral assay, that is the lowest multiplicity of infection (MOI) that will infect all positive control cultures. The inoculum was approximately seven times the TCID50/mL of the stock virus.
1 mL cultures were plated with approximately 2.5×10^5 cells per culture. Four replicates were run for each assay condition.
The virus was absorbed onto the host cells in the presence of a reduced volume of culture medium for 2 hours. The inoculum was then washed off the cells with phosphate buffered saline. […] The growth medium used was RPMI 1640 with 10% fetal bovine serum and 50 μg/mL gentamicin.
The assay was run for 7 days and re-fed media with appropriate compound concentrations at 4 days.
The amount of virus proliferation was measured using an HIV-1 p24 antigen capture ELISA. At 7 days, supernatants were harvested and frozen. Supernatants were thawed and diluted as necessary, and the HIV-1 p24 ELISA assay was run. Excess supernatant was refrozen and held for 3 months. The HIV-1 p24 […] of replicate cultures were averaged and presented as a percentage of the positive control.
An inhibition index of zero indicated no efficacy. The closer to 1 the inhibition index was, the greater the efficacy.

For the next data set, the system named is H9 cells. Briefly: Cytotoxicity control by microscopic inspection of cells. The following applies: for Cytotoxicity (Appearance of cells): no virus.
Source text: as §1
Cytotoxicity was judged from the microscopic inspection of the cells.

The subject of data set [1] is Bovine Viral Diarrhoea Virus (BVDV), strain NADL. In words: Antiviral fluorometric cytoproliferation assay against BVDV in BT turbinate cells. Format: cell-based. The following applies: fluvastatin alone 0.3125 μg/mL.
Experimental: The Luo Han Guo extract was tested independently at a wide range of concentrations. The extract was tested in two assays, one at 100, 50, 25, 12.5 and 6.25 μg/mL and the other at 3600, 1200, 400, 133.3 and 44.4 μg/mL.
Bos taurus (BT) turbinate cells were used as host cells for the virus. After the cells were plated and allowed to grow overnight, The extract was added and then the virus was inoculated into the cultures. The cultures were allowed to grow for 7 days and then a fluorometric cytoproliferation assay was run. The data from all replicate cultures was averaged and compared to the growth of the negative controls (no virus or extract). The extract was present during absorption and in the media for the duration of the assays. A titration was run on the virus under the assay conditions but without the extract to determine the optimal viral inoculum for the antiviral assay. A dilution of 10^−4 of the stock virus was determined to be the correct inoculum for the antiviral assays. The growth medium used was Dulbecco's Minimum Eagle's Medium and 10% filtered horse serum. […]
The inhibition index was calculated as one minus the ratio of the average fluorescent units of the positive control to the average fluorescent units of infected cultures with a particular concentration of extract (1−(average positive control+average with extract)). […]
The nature of data set [2]: Water solubility (stated). In kind it is physicochemical.

For the compound `C[C@H](CC[C@@H](O[C@@H]1O[C@H](CO[C@@H]2O[C@H](CO)[C@@H](O)[C@H](O)[C@H]2O)[C@@H](O)[C@H](O)[C@H]1O[C@@H]1O[C@H](CO)[C@@H](O)[C@H](O)[C@H]1O)C(C)(C)O)[C@H]1CC[C@@]2(C)[C@@H]3CC=C4[C@@H](CC[C@H](O[C@@H]5O[C@H](CO[C@@H]6O[C@H](CO)[C@@H](O)[C@H](O)[C@H]6O)[C@@H](O)[C@H](O)[C@H]5O)C4(C)C)[C@]3(C)[C@H](O)C[C@]12C` [Mogroside V, mogroside V], the “Concentration most effective against HIV-1” value in the data set on HIV-1 strain IIIB is 6 µg/mL. Also, the Efficacy entry in the data set with HIV-1 strain IIIB (Mogroside V 2 μg/mL) is “Partial (partially efficacious if cultures had an inhibition index between 0.20 and 0.89)”; with HIV-1 strain IIIB (Mogroside V 6 μg/mL), “Partial (partially efficacious if cultures had an inhibition index between 0.20 and 0.89)”; in the data set with HIV-1 strain IIIB (Mogroside V 12 μg/mL) it was “Partial (partially efficacious if cultures had an inhibition index between 0.20 and 0.89)”; in the data set on HIV-1 strain IIIB (Mogroside V 36 μg/mL), “Partial (partially efficacious if cultures had an inhibition index between 0.20 and 0.89)”; in the data set with HIV-1 strain IIIB (Mogroside V 100 μg/mL) it was “None (as having no efficacy if cultures had an inhibition index of less than 0.20)”. Further, the “% Positive Control (HIV-1 p24)” value was 48% with HIV-1 strain IIIB (Mogroside V 2 μg/mL); 21% with HIV-1 strain IIIB (Mogroside V 6 μg/mL); 34% in the data set on HIV-1 strain IIIB (Mogroside V 12 μg/mL); 59% in the data set with HIV-1 strain IIIB (Mogroside V 36 μg/mL); 88% with HIV-1 strain IIIB (Mogroside V 100 μg/mL). In the data set on HIV-1 strain IIIB (Mogroside V 6 μg/mL), the “Effectiveness at suppressing HIV-1 replication” value is roughly 80%. The “Cytotoxicity (Appearance of cells)” value in the data set on H9 cells (Mogroside V 2 μg/mL), with H9 cells (Mogroside V 6 μg/mL), in the data set on H9 cells (Mogroside V 12 μg/mL), in the data set with H9 cells (Mogroside V 36 μg/mL) and in the data set on H9 cells (Mogroside V 100 μg/mL) was “Normal” throughout. The “Cytotoxicity, as determined by microscopic inspection” value in the data set with H9 cells (entire range of concentrations used (2 to 100 μg/mL)) is “no cytotoxicity”.

`CC(C)n1c(/C=C/[C@H](O)C[C@H](O)CC(=O)O)c(-c2ccc(F)cc2)c2ccccc21` (racemic) [fluvastatin, 7-[3-(4-fluorophenyl)-1-(1-methylethyl)-1H-indol-2-yl]-3,5-dihydroxy-hept-6-enoic acid]: the “Antiviral activity against BVDV” value in data set [1] was “no antiviral activity”. Besides, in data set [2], the Water solubility entry is given as “water soluble”.
